ChEMBL document CHEMBL1150464, “Glycosyl derivatives of NK2 tachykinin receptor antagonists” (Bioorg Med Chem Lett, 1996)
Calls of active or inactive are those of the source. The rule behind the calls is not given here. Peptide text beside a SMILES is read from it. * marks the point of attachment. βGlc = OC[C@H]1O[C@@H](*)[C@H](O)[C@@H](O)[C@@H]1O

Tests used:
Type in all cases: functional
[1] = biological target: T1, Substance-K receptor (Mesocricetus auratus) (UniProt P51144); assay: Compound was tested for its antagonistic activity against tachykinin NK2 receptor in hamster trachea (HT).
T1 sequence (whole entry): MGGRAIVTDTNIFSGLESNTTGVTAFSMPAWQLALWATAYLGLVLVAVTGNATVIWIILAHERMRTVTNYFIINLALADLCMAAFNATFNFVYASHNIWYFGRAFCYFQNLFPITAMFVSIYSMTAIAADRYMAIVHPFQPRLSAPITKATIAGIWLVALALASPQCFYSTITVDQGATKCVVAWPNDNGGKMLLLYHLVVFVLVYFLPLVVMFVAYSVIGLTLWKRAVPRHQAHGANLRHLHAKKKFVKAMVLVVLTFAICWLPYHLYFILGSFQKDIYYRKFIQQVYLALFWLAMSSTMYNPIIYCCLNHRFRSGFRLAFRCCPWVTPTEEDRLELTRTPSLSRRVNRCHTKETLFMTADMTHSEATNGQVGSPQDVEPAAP

[2] = biological target: T2, Substance-K receptor (Oryctolagus cuniculus) (UniProt P79218); assay: Compound was tested for its antagonistic activity against tachykinin NK2 receptor in isolated rabbit pulmonary artery (RPA).
T2 sequence (whole entry): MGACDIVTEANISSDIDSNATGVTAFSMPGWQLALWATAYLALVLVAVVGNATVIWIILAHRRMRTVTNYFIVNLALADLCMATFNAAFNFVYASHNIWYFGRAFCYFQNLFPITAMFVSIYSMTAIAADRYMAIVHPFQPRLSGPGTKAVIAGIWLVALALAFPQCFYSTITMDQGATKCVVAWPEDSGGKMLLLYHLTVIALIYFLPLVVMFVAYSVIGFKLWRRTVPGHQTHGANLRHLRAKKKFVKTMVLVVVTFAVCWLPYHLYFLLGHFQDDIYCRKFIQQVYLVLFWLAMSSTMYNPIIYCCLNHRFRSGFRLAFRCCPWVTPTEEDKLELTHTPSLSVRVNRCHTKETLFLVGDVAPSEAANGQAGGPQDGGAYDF

[3] = biological target: T1, Substance-K receptor (Mesocricetus auratus); assay: Compound was tested for its antagonistic activity against tachykinin NK2 receptor in hamster trachea (HT); inactive up to 10 uM

For `CC(C)[C@H](NC(=O)[C@H](Cc1c[nH]c2ccccc12)NC(=O)[C@H](Cc1ccc(O)cc1)NC(=O)[C@H](CC(=O)O)NC(=O)[C@@H](N)Cc1ccc(O[C@@H]2O[C@H](CO)[C@@H](O)[C@H](O)[C@H]2O)cc1)C(=O)N[C@@H](Cc1c[nH]c2ccccc12)C(=O)N[C@H](Cc1c[nH]c2ccccc12)C(=O)N[C@@H](CCCCN)C(N)=O`, the pKB [1] was < 5 and the pKB [2] was 7.2.
In the case of `CC(C)[C@H](NC(=O)[C@H](Cc1c[nH]c2ccccc12)NC(=O)[C@H](Cc1ccc(O[C@@H]2O[C@H](CO)[C@@H](O)[C@H](O)[C@H]2O)cc1)NC(=O)[C@@H](N)CC(=O)O)C(=O)N[C@@H](Cc1c[nH]c2ccccc12)C(=O)N[C@H](Cc1c[nH]c2ccccc12)C(=O)N[C@@H](CCCCN)C(N)=O`, the pKB [3] is reported as “inactive” and the pKB [2] is reported as 6.2.
`CC(C)[C@H](NC(=O)[C@H](Cc1c[nH]c2ccccc12)NC(=O)[C@H](Cc1ccc(O)cc1)NC(=O)[C@@H](N)CC(=O)O)C(=O)N[C@H](Cc1c[nH]c2ccccc12)C(=O)N[C@@H](Cc1c[nH]c2ccccc12)C(=O)N[C@@H](CCCCN)C(N)=O` gave a pKB [1] of 5.6 and a pKB [2] of 8.1.
With `CC(C)[C@H](NC(=O)[C@H](Cc1c[nH]c2ccccc12)NC(=O)[C@H](Cc1ccc(O[C@@H]2O[C@H](CO)[C@@H](O)[C@H](O)[C@H]2O)cc1)NC(=O)[C@@H](N)CC(=O)O)C(=O)N[C@@H](Cc1c[nH]c2ccccc12)C(N)=O` (H-DY(βGlc)WVW-NH2) the pKB [3] was “inactive” and the pKB [2] was < 5.
Molecule `CC(C)[C@H](NC(=O)[C@@H](Cc1c[nH]c2ccccc12)NC(=O)[C@H](Cc1ccc(O)cc1)NC(=O)[C@@H](N)CC(=O)O)C(=O)N[C@H](Cc1c[nH]c2ccccc12)C(N)=O` has a pKB [1] of 5.4 and a pKB [2] of 6.3.
For `CC(C)[C@H](NC(=O)[C@H](Cc1c[nH]c2ccccc12)NC(=O)[C@H](Cc1ccc(O)cc1)NC(=O)[C@H](CC(=O)O)NC(=O)[C@@H](N)CO[C@@H]1O[C@H](CO)[C@@H](O)[C@H](O)[C@H]1O)C(=O)N[C@@H](Cc1c[nH]c2ccccc12)C(=O)N[C@H](Cc1c[nH]c2ccccc12)C(=O)N[C@@H](CCCCN)C(N)=O`, the pKB [1] was < 5 and the pKB [2] was 7.3.
For `CC(C)[C@H](NC(=O)C(Cc1c[nH]c2ccccc12)NC(=O)[C@H](Cc1ccc(O)cc1)NC(=O)[C@H](CC(=O)O)NC(=O)[C@@H](N)CO[C@@H]1O[C@H](CO)[C@@H](O)[C@H](O)[C@H]1O)C(=O)NC(Cc1c[nH]c2ccccc12)C(N)=O` (stereo in doubt), the pKB [1] was < 6 and the pKB [2] was < 6.
